Experimental data from patent US11307205B2, “Non-radioactive cytotoxicity assays” (University of Southern California, priority 2016, dated 2022).

Test system: HEL-92-1-17 cells
Assay: Matador assay, Digitonin-induced death of HEL cells expressing a luciferase reporter
Format: cell-based
Conditions: Digitonin 30 μg/ml, 1 hour
Procedure: A 100× stock solution of native coelenterazine (CTZ; Nanolight, cat #303) was made by dissolving 1 mg of lyophilized CTZ powder in 1.1 ml of 100% Methanol supplemented with 30 μl of 6N HCl to avoid oxidation of CTZ with time. To make CTZ assay buffer, the 100× stock solution of CTZ was diluted to 0.5× concentration in PBS. Unless indicated otherwise, a total volume of 15 μl of the CTZ assay buffer (as prepared above) was added using an auto-injector to each well of a 384-well white plate (Greiner, 384 well white plate cat #781075) containing cells expressing the non-secretory form of a copepod luciferase in approximately 50-60 μl volume of medium and plates were read for luminescence in well-mode using BioTek synergyH4 plate reader. In the well-mode, an auto-injector or dispenser is used and assay buffer is added in one well, luminescence is read in that well, then the assay buffer is added to next well and luminescence is read in that well. Where indicated, assay was also conducted in the endpoint mode. In the endpoint mode, an autoinjector or dispenser is not used, the assay buffer is added in all wells manually using a pipette and then luminescence is read in all wells of the plate. For 96 well plates, cells were plated in 200 μl of media and approximately 50 μl of 0.5×CTZ assay buffer was added. […]

C[C@@H]1CC[C@@]2(OC1)O[C@H]1[C@@H](O)[C@H]3[C@@H]4CC[C@H]5C[C@@H](O[C@@H]6O[C@H](CO)[C@H](O[C@@H]7O[C@H](CO)[C@@H](O)[C@H](O[C@@H]8OC[C@@H](O)[C@H](O)[C@H]8O)[C@H]7O[C@@H]7O[C@H](CO)[C@H](O)[C@H](O[C@@H]8O[C@H](CO)[C@@H](O)[C@H](O)[C@H]8O)[C@H]7O)[C@H](O)[C@H]6O)[C@H](O)C[C@]5(C)[C@H]4CC[C@]3(C)[C@H]1[C@@H]2C [Digitonin]
GLuc luciferase activity (HEL-92-1-17 cells stably expressing GLuc, evident even in wells containing a single cell): increase in GLuc luciferase activity | NLuc activity (HEL-92-1-17 cells stably expressing NLuc): increase in NLuc activity
